Where “and” joins values, the source holds several entries; their conditions need not be identical. Equal values may be shown once. Inconclusive results and toxic doses are left out.

For the assay, the system named is BDF1 mice, P388 leukemia ip, median survival T/C. The assay is described as follows: NCI In Vivo Anticancer Drug Screen. Data for tumor model P388 Leukemia (intraperitoneal) in B6D2F1 (BDF1) mice. The note with it: endpoint: median survival time, higher = longer survival. In short, it runs like this:
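Antitumour effect was judged in vivo: survival in drug-treated mice, normalised to that of vehicle-dosed controls, gives the reported T/C.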

The mark [1] stands for this setting: dose: 12.5 mg/kg/injection, schedule: Q01DX009 (ip), vehicle: saline.
The mark [2] stands for this setting: dose: 25.0 mg/kg/injection, schedule: Q01DX009 (ip), vehicle: saline.
Setting [3] is: dose: 50.0 mg/kg/injection, schedule: Q01DX009 (ip), vehicle: saline.
Setting [4] is: dose: 50.0 mg/kg/injection, schedule: Q04DX003 (ip), vehicle: saline.
The mark [5] stands for this setting: dose: 100.0 mg/kg/injection, schedule: Q01DX009 (ip), vehicle: saline with Tween-80.
The mark [6] stands for this setting: dose: 100.0 mg/kg/injection, schedule: Q04DX003 (ip), vehicle: saline with Tween-80.
Where [7] appears, read: dose: 200.0 mg/kg/injection, schedule: Q04DX003 (ip), vehicle: saline with Tween-80.
[8] abbreviates: dose: 400.0 mg/kg/injection, schedule: Q04DX003 (ip), vehicle: saline with Tween-80.
[9] abbreviates: dose: 25.0 mg/kg/injection, schedule: Q01DX009 (ip), vehicle: saline with Tween-80.
Setting [10] is: dose: 50.0 mg/kg/injection, schedule: Q01DX009 (ip), vehicle: saline with Tween-80.

As for `COc1ccc(C(=O)N/N=C(\C)[C@]2(O)Cc3c(O)c4c(c(O)c3[C@@H](OC3CC(N)C(O)C(C)O3)C2)C(=O)c2c(OC)cccc2C4=O)cc1` (some centres undefined), the T/C is 117 % of control and 123 % of control (dose: 0.25 mg/kg/injection, schedule: Q01DX009 (ip), vehicle: water); 156 % of control and 212 % of control (dose: 1.0 mg/kg/injection, schedule: Q01DX009 (ip), vehicle: water); 275 % of control and 156 % of control (dose: 2.0 mg/kg/injection, schedule: Q01DX009 (ip), vehicle: water); 244 % of control and 107 % of control (dose: 4.0 mg/kg/injection, schedule: Q01DX009 (ip), vehicle: water); 107 % of control (dose: 8.0 mg/kg/injection, schedule: Q01DX009 (ip), vehicle: water).
For `COc1cc2ccc3c(c2cc1OC)N(C)C(OC)c1cc2c(cc1-3)OCO2` (centres undefined), the T/C (dose: 20.0 mg/kg/injection, schedule: Q01DX009 (ip), vehicle: water) was 104 % of control and the T/C (dose: 240.0 mg/kg/injection, schedule: Q01DX009 (ip), vehicle: water) is 95 % of control.
On to `O=C1NC(c2ccccc2)(c2ccccc2)C(=O)N1CCBr`, for which the T/C runs as follows: under setting [1], 105 % of control and 121 % of control; under setting [2], 105 % of control and 113 % of control; under setting [3], 107 % of control and 113 % of control; under setting [4], 107 % of control.
For `COc1ccc(C2(C#N)CC2)cc1`, the T/C is 95 % of control under setting [5]; 91 % of control under setting [6]; 100 % of control (dose: 200.0 mg/kg/injection, schedule: Q01DX009 (ip), vehicle: saline with Tween-80); 100 % of control under setting [7]; 104 % of control (dose: 400.0 mg/kg/injection, schedule: Q01DX009 (ip), vehicle: saline with Tween-80); 108 % of control under setting [8].
In the case of `CCS(=O)(=O)CCN1C(=O)CN=C(c2ccccc2F)c2cc(Cl)ccc21`, the T/C (dose: 12.5 mg/kg/injection, schedule: Q01DX009 (ip), vehicle: saline with Tween-80) is 114 % of control; the T/C under setting [9] was 96 % of control; the T/C under setting [10] was 103 % of control and 123 % of control; the T/C under setting [5] is 90 % of control and 107 % of control.
Take `O=C1c2ccccc2C(=O)c2c(NCCOCCO)ccc(NCCOCCO)c21`: the T/C is 98 % of control (dose: 25.0 mg/kg/injection, schedule: Q01DX005 (ip), vehicle: saline with Tween-80); 94 % of control (dose: 50.0 mg/kg/injection, schedule: Q01DX005 (ip), vehicle: saline with Tween-80); 90 % of control (dose: 100.0 mg/kg/injection, schedule: Q01DX005 (ip), vehicle: saline with Tween-80); 102 % of control (dose: 200.0 mg/kg/injection, schedule: Q01DX005 (ip), vehicle: saline with Tween-80).
As for `NC(=O)Oc1cccc(OC(N)=O)c1`, the T/C was 106 % of control (dose: 12.5 mg/kg/injection, schedule: Q04DX003 (ip), vehicle: water); 106 % of control (dose: 25.0 mg/kg/injection, schedule: Q04DX003 (ip), vehicle: water); 111 % of control (dose: 50.0 mg/kg/injection, schedule: Q04DX003 (ip), vehicle: water); 106 % of control (dose: 100.0 mg/kg/injection, schedule: Q04DX003 (ip), vehicle: water).
As for `O=C(O)CCCNSc1ccccc1[N+](=O)[O-]`, the T/C under setting [5] is 124 % of control.
Consider `CC(C)C([NH-])=O.CC(C)C([NH-])=O.[Cl][Pt+2][Cl]`, for which the T/C is, setting by setting: (dose: 3.12 mg/kg/injection, schedule: Q01DX009 (ip), vehicle: saline) 93 % of control; (dose: 6.25 mg/kg/injection, schedule: Q01DX009 (ip), vehicle: saline) 101 % of control and 118 % of control; under setting [1], 87 % of control and 117 % of control; under setting [2], 87 % of control and 112 % of control and 123 % of control; (dose: 25.0 mg/kg/injection, schedule: Q04DX003 (ip), vehicle: saline) 118 % of control; under setting [3], 95 % of control. Besides, the T/C is 116 % of control under setting [4]; 93 % of control and 112 % of control (dose: 100.0 mg/kg/injection, schedule: Q01DX009 (ip), vehicle: saline); 114 % of control (dose: 100.0 mg/kg/injection, schedule: Q04DX003 (ip), vehicle: saline).
With `NC(C(=O)O)c1cccc(Cl)c1` (centres undefined), the T/C reads like this: (dose: 100.0 mg/kg/injection, schedule: Q01DX001 (ip), vehicle: Klucel (hydroxypropylcellulose) (HPC)) 91 % of control; (dose: 200.0 mg/kg/injection, schedule: Q01DX001 (ip), vehicle: Klucel (hydroxypropylcellulose) (HPC)) 108 % of control; (dose: 400.0 mg/kg/injection, schedule: Q01DX001 (ip), vehicle: Klucel (hydroxypropylcellulose) (HPC)) 95 % of control.
For the molecule `Fc1ccc(P(c2ccc(F)cc2)c2ccc(F)cc2)cc1`, the T/C is, setting by setting: (dose: 3.12 mg/kg/injection, schedule: Q01DX009 (ip), vehicle: Klucel (hydroxypropylcellulose) (HPC)) 92 % of control; (dose: 6.25 mg/kg/injection, schedule: Q01DX009 (ip), vehicle: Klucel (hydroxypropylcellulose) (HPC)) 92 % of control; (dose: 12.5 mg/kg/injection, schedule: Q01DX009 (ip), vehicle: Klucel (hydroxypropylcellulose) (HPC)) 107 % of control; (dose: 25.0 mg/kg/injection, schedule: Q01DX009 (ip), vehicle: Klucel (hydroxypropylcellulose) (HPC)) 100 % of control; (dose: 50.0 mg/kg/injection, schedule: Q01DX009 (ip), vehicle: Klucel (hydroxypropylcellulose) (HPC)) 96 % of control; (dose: 50.0 mg/kg/injection, schedule: Q04DX003 (ip), vehicle: Klucel (hydroxypropylcellulose) (HPC)) 100 % of control. The T/C is 87 % of control (dose: 100.0 mg/kg/injection, schedule: Q04DX003 (ip), vehicle: Klucel (hydroxypropylcellulose) (HPC)) and 95 % of control (dose: 200.0 mg/kg/injection, schedule: Q04DX003 (ip), vehicle: Klucel (hydroxypropylcellulose) (HPC)).
On to `Cc1ccccc1P(=O)(c1ccccc1)c1ccccc1C`, for which the T/C by setting is: under setting [9], 90 % of control; under setting [10], 96 % of control; under setting [5], 87 % of control.
With `C=CC1CCCCC1C=C` (centres undefined), the T/C runs as follows: under setting [2], 107 % of control; under setting [3], 88 % of control.
For the molecule `CCOC(=O)C1(C)CCCCC1=O` (centres undefined), the T/C was 95 % of control under setting [6], 104 % of control under setting [7] and 100 % of control under setting [8].
Turning to `O=C1c2ccccc2C(=O)c2c(NCCNCCNCCO)ccc(NCCNCCNCCO)c21`, the T/C (dose: 25.0 mg/kg/injection, schedule: Q01DX009 (ip), vehicle: water) is 100 % of control; the T/C (dose: 50.0 mg/kg/injection, schedule: Q01DX009 (ip), vehicle: water) is 113 % of control; the T/C (dose: 100.0 mg/kg/injection, schedule: Q01DX009 (ip), vehicle: water) was 115 % of control.
With `CC(=O)NC(C)C(=O)NC(CC(=O)O)C(=O)O` (centres undefined), the T/C is 97 % of control (dose: 50.0 mg/kg/injection, schedule: Q01DX005 (ip), vehicle: saline); 100 % of control (dose: 100.0 mg/kg/injection, schedule: Q01DX005 (ip), vehicle: saline); 103 % of control (dose: 200.0 mg/kg/injection, schedule: Q01DX005 (ip), vehicle: saline).
Turning to `CC(=O)OC1CC2CCCCC21` (centres undefined), the T/C by setting is: (dose: 50.0 mg/kg/injection, schedule: Q01DX009 (ip), vehicle: other) 116 % of control; (dose: 100.0 mg/kg/injection, schedule: Q01DX009 (ip), vehicle: other) 105 % of control; (dose: 200.0 mg/kg/injection, schedule: Q01DX009 (ip), vehicle: other) 100 % of control.
As to `COc1cccc2c1C(=O)c1c(O)c3c(c(O)c1C2=O)CC(O)(/C(C)=N/Nc1ccc(Cl)cc1)CC3OC1CC(N)C(O)C(C)O1` (centres undefined), the T/C (dose: 4.08 mg/kg/injection, schedule: Q04DX003 (ip), vehicle: water) was 158 % of control and the T/C (dose: 6.8 mg/kg/injection, schedule: Q04DX003 (ip), vehicle: water) was 157 % of control.
Take `CCCCCCCC(=O)[O][Hg][CH2]C1COC([CH2][Hg][O]C(=O)CCCCCCC)CO1` (centres undefined): the T/C is, setting by setting: (dose: 12.5 mg/kg/injection, schedule: Q01DX009 (ip), vehicle: saline sonified) 110 % of control; (dose: 50.0 mg/kg/injection, schedule: Q04DX003 (ip), vehicle: saline sonified) 116 % of control.
As to `CC/C(=C\c1cccc([N+](=O)[O-])c1)C(=O)O`, the T/C by setting is: (dose: 100.0 mg/kg/injection, schedule: Q01DX009 (ip), vehicle: Klucel (hydroxypropylcellulose) (HPC)) 100 % of control; (dose: 200.0 mg/kg/injection, schedule: Q01DX009 (ip), vehicle: Klucel (hydroxypropylcellulose) (HPC)) 100 % of control; (dose: 400.0 mg/kg/injection, schedule: Q01DX009 (ip), vehicle: Klucel (hydroxypropylcellulose) (HPC)) 109 % of control.

Source of the values: PubChem BioAssay AID328 (DTP/NCI, 2004).
